Measured values published in patent EP0419844B1, “N-hydroxy-dibenz[b,e]oxepin-alkylamines and -alkanoic acid amides, related heterocyclic analogues, a process for their preparation and their use in the manufacture of medicaments” (HOECHST-ROUSSEL PHARMACEUTICALS INCORPORATED, priority 1989, dated 1991).

Experiments:
[1] = system: phenyl-para-quinone induced writhing; experiment: Phenyl-para-benzoquinone writhing assay (analgesia); format: in vivo; conditions: Mus musculus, mice; for ED50: sc, subcutaneous dose at which 50% of the phenyl-para-quinone induced writhing is inhibited, read-out: ED₅₀
Description: The compounds of the present invention are also useful as analgesic agents due to this ability to alleviate pain in mammals. […] Exptl. Biol. Med., 95, 729 (1957)].
The analgesic activity of some of the compounds expressed as either the subcutaneous dose at which 50% of the phenyl-para-quinone induced writhing is inhibited in the animals, i.e., the ED₅₀ value, or as the % decrease in writhing at a given dose is presented in Table 2.

[2] = system: arachidonic acid-induced ear edema; experiment: Arachidonic Acid-Induced Mouse Ear Edema (AAEE); format: in vivo, female Swiss Webster mice; conditions: 1 mg/ear topical, 30 minutes before arachidonic acid 4 mg/ear; ear plug weight one hour later, relative to control
Protocol: Arachidonic Acid-Induced Mouse Ear Edema (AAEE)
In the arachidonic acid-induced ear edema assay, the test compound is dissolved in 30/70 propylene glycol/ethanol and is applied to both ears of groups of 6 female Swiss Webster mice at a volume of 20 »l so that a total of 1.0 mg of test compound as delivered to each ear over the inner and outer surfaces. The mice were housed together in a cage under standard conditions for 1 week prior to use with food and water ad lib. The same volume (20 »l) of vehicle is applied to each ear of a control group of mice. After 30 minutes, arachidonic acid is applied to the right ear of each mouse of each group in the amount of 4 mg/ear. Vehicle is applied to the left ear of each mouse of each group at a volume of 20 »l/ear. After an additional hour, the mice are sacrificed and a 4mm plug is taken from each ear and weighed. The difference between the right and left ear plugs was determined for each animal. The antiinflammatory activity of the test compound is expressed as the mean percent change in the ear plug weight of the treated animals relative to the mean percent change in weights of control animals' ear. (Standard: Indomethacin -90% at 1 mg/ear). Young, J.M. et al., Invest. Dermatol., 80, (1983), pp. 48-52.

TPA-induced ear edema = experiment: TPA-Induced Ear Edema (TPAEE); format: in vivo, female Swiss Webster mice; conditions: for TPAEE 10 »g/ear: 10 »g/ear compound topical with 10 »g TPA, ear plug weight after about 5 hours, mean percent change versus control
Protocol: TPA-Induced Ear Edema (TPAEE)
In the TPA-induced ear edema assay, TPA (12-0-tetradecanoyl-phorbol-13-acetate) is dissolved in 30/70 propylene glycol/ethanol and is applied to the right ear of groups of 6 female Swiss Webster mice at a volume of 20 »l so that a total of 10 »g of TPA is delivered to the inner and outer surfaces of the ear. The mice were housed together in a cage under standard conditions for 1 week prior to use with food and water ad lib. The test compound is dissolved in the vehicle and is applied to the right ear (the inner and outer surfaces) at a volume of 20 »l so that a total of 10 »g of the compound is delivered to the ear. After about 5 hours, the animals are sacrificed and a 4 mm diameter plug is taken from each ear and weighed. The difference between the right and left ear plug weights for each animal was determined. The antiinflammatory activity of the test compound is expressed as the mean percent change in ear plug weight of the treated animals compared to the mean percent change in the plug weight of the control animals. (Standard: Indomethacin: -86% at 1 mg/ear). Young, J.M. et al., J. Invest. Dermatol., 80 (1983), pp. 48-52.

[3] = system: naja naja (snake venom) phospholipase A₂(PLA₂)-induced paw edema; experiment: Phospholipase A2-Induced Paw Edema (PIPE); format: in vivo, male Wistar rats; conditions: for PIPE 0.1 M: 0.1 M test compound injected with PLA2 (3 units/paw) in the subplantar region of the rat left hindpaw, paw displacement at two hours; for ED₅₀: standards of the PIPE assay, PLA2-induced rat paw edema
Protocol: Phospholipase A₂-Induced Paw Edema (PIPE)
The ability of compounds to reverse naja naja (snake venom) phospholipase A₂(PLA₂)-induced paw edema in male Wistar rats (100-125 gm) was measured. PLA₂ (3 units/100 »l dH₂O/paw) alone or with 0.1 M of the test compound was injected in the sulplantar region of the rat left hindpaw. Immediatly following injection and at two hours post administration, the paw was immersed in a mercury bath, and paw displacement was measured on a recorder via a transducer. The value was then converted to […]. (Standards: Quinacrine ED₅₀ = 0.1 M; Hydrocortisone ED₅₀= 0.46 M). Giessler, A.J. et al., "Agents and Action", Vol. 10, "Trends in Inflammation Research" (1981), p. 195.

Compound	AAEE % Change @ 1 mg/ear [2]	TPAEE 10 »g/ear (TPA-induced ear edema)	PIPE 0.1 M [3]	also measured
CCN(O)C(=O)C(C)c1ccc2c(c1)C(=O)c1ccccc1CO2 (centres unmarked) [2-(6,11-Dihydro-11-oxodibenz[b,e,]oxepin-2-yl]-N-ethyl-N-hydroxypropanamide]	–	–	–	ED50 [1]: 3.6 mg/kg
CN(O)CCc1ccc2c(c1)C(=O)c1ccccc1CO2 [2-(6,11-Dihydro-11-oxodibenz[b,e]oxepin-2-yl)-N-hydroxy-N-methyl-ethylamine]	-46%	-50	-70	–
O=C1c2ccccc2COc2ccc(CCC(=O)N(O)C3CCCCC3)cc21 [3-(6,11-Dihydro-11-oxodibenz[b,e]oxepin-2-yl)-N-cyclohexyl-N-hydroxypropanamide]	–	–	–	inhibition at 20 mg/kg [1]: 76%
CN(O)C(=O)CCc1ccc2c(c1)C(=O)c1ccccc1CO2 [3-(6,11-Dihydro-11-oxodibenz[b,e]oxepin-2-yl)-N-hydroxy-N-methylpropanamide]	-63%	-71	-46	–
C[C@]12CCC(=O)C=C1CC[C@@H]1[C@@H]2[C@@H](O)C[C@@]2(C)[C@H]1CC[C@]2(O)C(=O)CO [Hydrocortisone, reference compound]	–	–	–	ED₅₀ [3]: 0.46 M
COc1ccc2c(c1)c(CC(=O)O)c(C)n2C(=O)c1ccc(Cl)cc1 [Indomethacin, reference compound]	-90%	–	–	TPAEE percent change in ear plug weight (TPA-induced ear edema; standard, at 1 mg/ear): -86%
O=C1c2ccccc2COc2ccc(CC(=O)N(O)C3CCCCC3)cc21 [N-Cyclohexyl-2-(6,11-dihydro-11-oxodibenz[b,e]oxepin-2-yl)-N-hydroxyacetamide]	-29%	-52	-85	inhibition at 20 mg/kg [1]: 68%
CCC(=O)O[C@](Cc1ccccc1)(c1ccccc1)[C@H](C)CN(C)C [Propoxyphene, reference compound]	–	–	–	ED50 [1]: 3.9 mg/kg
CCN(CC)CCCC(C)Nc1c2ccc(Cl)cc2nc2ccc(OC)cc12 (centres unmarked) [Quinacrine, reference compound]	–	–	–	ED₅₀ [3]: 0.1 M
